Assay results published in article PMC10342804, “Neuroprotective and Disease-Modifying Effects of the Triazinetrione ACD856, a Positive Allosteric Modulator of Trk-Receptors for the Treatment of Cognitive Dysfunction in Alzheimer’s Disease” (International Journal of Molecular Sciences, 2023).

B1: BDNF: recombinant human brain-derived neurotrophic factor (PeproTech 450-02) (protein, UniProt P23560 19-247, looked up)
Neurotrophic factor BDNF …: APMKEANIRGQGGLAYPGVRTHGTLESVNGPKAGSRGLTSLADTFEHVIEELLDEDQKVRPNEENNKDADLYTSRVMLSSQVPLEPPLLFLLEEYKNYLDAANMSMRVRRHSDPARRGELSVCDSISEWVTAADKKTAVDMSGGTVTVLEKVPVSKGQLKQYFYETKCNPMGYTKEGCRGIDKRHWNSQCRTTQSYVRALTMDSKKRIGWRFIRIDTSCVCTLTIKRGR
B2: NT3: neurotrophin-3, binds to TrkC (protein, UniProt P20783 139-257, looked up)
Neurotrophin-3: YAEHKSHRGEYSVCDSESLWVTDKSSAIDIRGHQVTVLGEIKTGNSPVKQYFYETRCKEARPVKNGCRGIDDKHWNSQCKTSQTYVRALTSENNKLVGWRWIRIDTSCVCALSRKIGRT

Key:
[1] = set-up: method as in PMID 34440640; settings: s.c., doses 0.3 mg/kg up to 3 mg/kg; cited from earlier work
C57BL/6J mice = assay: Forced swim test; type: in vivo, mouse; settings: ACD856 1 mg/kg s.c. five days; ketamine single dose 10 mg/kg seven days prior to swimming session
Method: Depression-like behavior was assessed in male C57BL/6J mice using a modified version of the FST, as described previously. This included a two-day protocol test, with pre-exposure to water 24 h prior to the test (day one of FST), which seems to be a more accurate and sensitive technique in detecting depression-like behavior in mice than the standard method of a single exposure (one day test). Animals were individually placed in a vertical glass cylinder (50 cm high, 20 cm in diameter, CMA) filled with tap water up to 35 cm (25 ± 0.5 °C). Two swimming sessions were conducted: a 10 min pre-test (day one) followed 24 h later (day two) by a 6 min test session. The total duration of immobility, as well as latency to the first immobility, were recorded during the 6 min test. After each swimming session, the mice were gently removed and placed in a home cage together with dry napkins. Immobility was defined as floating passively in an upright position in water with only small movements necessary to keep the head above the water’s surface. The floating time was considered an index of depression-like behavior. The glass cylinder was cleaned thoroughly between each animal.

[2] = system: ERK1/2 and Trk-receptors phosphorylation; assay: Western blot of pERK1/2 and phospho-Trk in cortical neurons stimulated with growth factors; type: cell-based, mouse; settings: 10 ng/mL factor, 20 min
Method: (§1) Figure 2 Increased activation of TrkB and downstream signaling through ERKK1/2 MAPK phosphorylation by BDNF and ACD856. Levels of phosphorylated TrkB receptors were determined by ELISA in SH-SY5Y cells overexpressing the human TrkB receptor (a). Effect of 0 (open bars), 10 (light grey bars), or 30 ng BDNF/mL (dark grey bars) and time course on BDNF-induced TrkB tyrosine phosphorylation are depicted as the mean of one experiment performed in quadruplicates +/− SEM * p < 0.05. SH-SY5Y-TrkB cells were incubated with 30 ng BDNF/mL for 10 min in the absence (DMSO) or presence of increasing concentrations of ACD856 (b). […] Data shown are the mean value +/− SEM from three independent experiments where each experiment was performed using at least 5 technical repeats. The effect of different neurotrophic factors on the phosphorylation of ERK1/2 and Trk-receptors was investigated (c). Cortical neurons were stimulated with 10 ng/mL of the indicated factors, and the levels of pERK1/2 (upper panel), phospho-Trk (tyrosine 674/675) (mid panel), and beta-actin as a loading control (lower panel) were analyzed by Western blot. Primary cortical neurons were incubated with 300 nM ACD856 for the indicated time periods in the absence of exogenous BDNF (d). The levels of phosphorylated ERK1/2 were determined by immunocytochemistry, and the total count per well of pERK1/2-positive neurites was determined. Fluorescence image at ×10 magnification showing phospho-ERK1/2 detected with immunocytochemistry in cortical neurons (e). * p < 0.05, ** p < 0.01 compared to control group at one-way ANOVA with Dunnett’s multiple comparisons test. Data shown are the mean value of all replicates +/− SEM from three different experiments.
Phosphorylated ERK 1/2 (pERK1/2) levels were evaluated in mouse primary neurons between DIV10–15. Cells were seeded at (60 × 10^4 cells) in 6-well plates coated with poly-D-Lysine. The activation of the Trk signaling pathway was induced with 10 ng/mL ligand for 20 min. Cells were thereafter immediately lysed on ice, sonicated, and denatured at 95 °C for 10 min on a heating block. Proteins were separated on a Novex Bis-Tris 4–12% gel and transferred to a PVDF membrane using an iBlot instrument (Invitrogen). The membrane was blocked using 5% BSA in TBS-T followed by incubation with anti-phospho-p44/42 MAPK (ERK1/2) rabbit monoclonal antibody (Cell Signaling CS-4370) (dilution 1:1000) in TBS-T with 0.1% BSA for at least 60 min. […] After washing, a Western blot detection reagent (Forte, Millipore) was added, and immunoreactive proteins were detected by luminescence using C-DiGit Blot Scanner and quantified with Image Studio™ Software (version 5.2). […]

primary cortical neurons [3] = assay: Resazurin assay, energy-deprived primary cortical neurons; type: cell-based, mouse; settings: 10 ng/mL, no glucose or pyruvate, vs untreated cells
Method: (§2) Metabolic activity was determined by measuring reduction in resazurin (a). […] Data shown are the means of all replicates +/− SEM from at least three different primary cultures. * p-value < 0.05, ** p-value < 0.01, *** p-value < 0.001, **** p-value < 0.0001 compared to control group at one-way ANOVA with Dunnett’s multiple comparisons test.
Cells were seeded at […] in 96-well plates and treated at DIV4–5 in Neurobasal-A media with 2% B27 and 2 mM glutamine (no glucose or pyruvate was present). Two hours after treatment, a 10% volume of resazurin ready-to-use solution was added to the cell culture media, and the plates were returned to the incubator for a further four hours. Resazurin reduction is directly proportional to metabolic function and was evaluated fluorometrically at 540 nm excitation and 580 nm emission wavelengths using a SpectraMax iD5 plate reader. Results were presented as a percentage change compared to the control group.

primary cortical neurons [4] = assay: Mitochondrial ToxGlo assay (ATP levels, cell membrane integrity), energy-deprived primary neurons; type: cell-based, mouse; settings: for cell membrane integrity: glucose and pyruvate withdrawal; for ATP levels: neurotrophins, 6 h, no glucose or pyruvate
Method: as §2
Mitochondrial ToxGlo assay was used to evaluate the cell membrane integrity and the ATP levels of PCN cells. At DIV4–5, cells seeded at […] in 96-well plates were treated for six and three hours with increasing doses of neurotrophins and ACD856, respectively, in Neurobasal-A media containing 2% B27 and 2 mM glutamine. No glucose or pyruvate was present in the cell media to prevent non-mitochondrial ATP production from glycolysis. Then, bis-AAF-R110, a fluorogenic substrate that is exclusively cleaved by proteases released from membrane-compromised cells, was added, and the plate was incubated at 37 °C for 30 min. Fluorescence was measured at 485 nm (Ex)/530 nm (Em) using a SpectraMax iD5 plate reader. Next, the ATP detection reagent was added, and luminescence was measured after 5 min incubation to assess ATP levels in lysed cells.

human TrkB receptor = target: T1, human TrkB receptor (Homo sapiens, UniProt Q16620); assay: Phospho-TrkB ELISA in SH-SY5Y cells overexpressing TrkB; type: cell-based; settings: 10 or 30 ng BDNF/mL, time course
T1 construct: host or cells: SH-SY5Y (human neuroblastoma) stably expressing TrkB
Method: as §1, with “The effect of different neurotrophic factors on the phosphorylation of ERK1/2 and Trk-receptors was investigated (c).” left out, “Primary cortical neurons were incubated with 300 nM ACD856 for the indicated time periods in the absence of exogenous BDNF (d).” left out, “Data shown are the mean value of all replicates +/− SEM from three different experiments.” left out

Molecule	phosphorylation of ERK1/2 [2]	phosphorylation of Trk-receptors (pY674/675) [2]	metabolic activity (reduction of resazurin) (primary cortical neurons [3])	cell membrane integrity (primary cortical neurons [4])	ATP levels (primary cortical neurons [4])	other results
Cc1cc(-n2c(=O)[nH]c(=O)n(C)c2=O)ccc1Oc1ccc(S(=O)(=O)C(F)(F)F)cc1 [ACD855]	–	–	–	–	–	pro-cognitive effects in cognition models [1]: potent pro-cognitive effects
CNC1(c2ccccc2Cl)CCCCC1=O (stereo not shown) [Ketamine, ketamine]	–	–	–	–	–	prolonged effect on immobility time in forced swim test (C57BL/6J mice): prolonged antidepressive-like effects
BDNF: recombinant human brain-derived neurotrophic factor (PeproTech 450-02)	the most effective growth factors with respect to inducing phosphorylation of ERK1/2	the only growth factors that induced phosphorylation of Trk-receptors	significantly higher fluorescence	improved cell membrane integrity	able to increase ATP levels	–
NGF: recombinant human nerve growth factor (PeproTech 450-01)	–	–	significantly higher fluorescence	improved cell membrane integrity	able to increase ATP levels	–
B1	–	–	–	–	–	BDNF-induced TrkB tyrosine phosphorylation (human TrkB receptor): in a dose- and time-dependent manner, increase TrkB phosphorylation
B2	the most effective growth factors with respect to inducing phosphorylation of ERK1/2	the only growth factors that induced phosphorylation of Trk-receptors	–	–	–	–
